Test results reported in patent publication US11180487B2, “Substituted cyanoindoline derivatives as NIK inhibitors” (Janssen Pharmaceutica NV, priority 2016, dated 2021).

Legend:
[1] = test system: JJN-3 (NIK translocated) multiple myeloma cells; assay: Antiproliferative activity on JJN-3 multiple myeloma cells (CellTiter-Glo, 96 hr), Biological Assay C; type: cell-based, human; conditions: Homo sapiens, JJN-3, 96 h, JJN-3 (NIK translocated) cells, averaged values, read-out: JJN-3 Proliferation inhibition (IC50 (nM))
Summary of the method: (§1)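 Growth read-out was CellTiter-Glo luminescence after 96 h compound exposure, given as percent of no-drug control after subtracting a blank of cells read at dosing. Compounds ran as 9-point serial 1:3 dilutions in 0.3% DMSO, duplicate wells, on JJN-3 (15000/well) or KMS12-BM (20000/well) cells in RPMI 1640/10% FCS.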

[2] = test system: KMS12-BM (NIK WT) multiple myeloma cells; assay: Antiproliferative activity on KMS12-BM multiple myeloma cells (CellTiter-Glo, 96 hr), Biological Assay C; type: cell-based, human; conditions: Homo sapiens, KMS-12-BM, 96 h, averaged values, read-out: KMS-12 Proliferation inhibition (IC50 (nM))
Summary of the method: as §1

[3] = test system: P-IKKα levels in L363 (NIK translocated multiple myeloma) cells; assay: Effect of compounds on P-IKKα levels in L363 cells (Mesoscale sandwich immuno-assay), Biological Assay B; type: cell-based, human; conditions: Homo sapiens, L-363, 2 h, 2 hr treatment, averaged values, read-out: Inhibition of pIKKα_L-363 (IC50 (nM))
Summary of the method: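 P-IKKα in lysates quantified by Mesoscale sandwich immunoassay after 2 h compound exposure in 1% DMSO, duplicate wells, 8-point 1:3 series. Human L363 cells had been preincubated 24 h with BAFF (1 μg/ml stock). Blank (10 μM ADS125117) subtracted; IC50 fitted sigmoidally to % inhibition of control.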

[4] = target: recombinant human NF-kappaB-inducing kinase (NIK/MAP3K14) (Homo sapiens, UniProt Q99558); assay: Inhibition of auto-phosphorylation of recombinant human NIK/MAP3K14 activity (AlphaScreen), Biological Assay A; type: biochemical; conditions: averaged values over all measurements on all batches
Summary of the method: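 AlphaScreen detection with anti-phospho-IKK Ser176/180 antibody plus Protein A acceptor/glutathione donor beads after 1 h, 25 °C reaction of 0.2 nM GST-tagged kinase, 25 μM ATP and compound. Buffer: 50 mM Tris pH 7.5, MgCl2, EGTA, DTT, vanadate; 1% DMSO. IC50 fitted sigmoidally to % inhibition.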

Chain of recombinant human NF-kappaB-inducing kinase (NIK/MAP3K14) (Q99558 whole entry): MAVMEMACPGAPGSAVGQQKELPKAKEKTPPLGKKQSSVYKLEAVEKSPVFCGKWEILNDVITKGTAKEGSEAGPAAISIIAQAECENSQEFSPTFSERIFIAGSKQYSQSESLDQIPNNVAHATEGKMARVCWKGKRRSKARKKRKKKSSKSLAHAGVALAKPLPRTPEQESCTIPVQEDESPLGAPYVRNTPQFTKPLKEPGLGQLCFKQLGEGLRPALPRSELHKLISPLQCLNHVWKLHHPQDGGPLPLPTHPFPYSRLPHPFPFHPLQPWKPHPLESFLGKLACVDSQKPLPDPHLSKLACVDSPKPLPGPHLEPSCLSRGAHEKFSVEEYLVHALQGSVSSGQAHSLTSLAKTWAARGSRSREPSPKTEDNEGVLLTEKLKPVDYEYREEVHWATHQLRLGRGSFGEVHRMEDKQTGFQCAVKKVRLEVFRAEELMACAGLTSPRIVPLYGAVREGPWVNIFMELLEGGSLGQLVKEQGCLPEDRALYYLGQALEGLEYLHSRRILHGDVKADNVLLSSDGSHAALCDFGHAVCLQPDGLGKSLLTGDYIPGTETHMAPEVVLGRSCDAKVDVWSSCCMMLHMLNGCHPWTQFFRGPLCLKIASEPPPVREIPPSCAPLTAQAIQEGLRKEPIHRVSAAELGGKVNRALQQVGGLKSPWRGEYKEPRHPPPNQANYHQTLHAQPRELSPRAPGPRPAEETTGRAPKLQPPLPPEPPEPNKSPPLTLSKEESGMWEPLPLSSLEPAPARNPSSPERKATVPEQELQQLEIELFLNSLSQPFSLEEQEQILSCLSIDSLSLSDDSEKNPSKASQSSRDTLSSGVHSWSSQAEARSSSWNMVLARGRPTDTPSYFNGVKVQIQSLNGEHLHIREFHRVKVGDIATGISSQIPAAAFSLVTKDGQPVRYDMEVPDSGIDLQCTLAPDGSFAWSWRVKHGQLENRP

IC50 [1] [nM] | IC50 [2] [nM] | IC50 [3] [nM] | IC50 [4] [nM] | melting point [°C] | SMILES
178 | > 10000 | 19.1 | 2.8 | 134 | C[C@]1(CO)CNc2c(C#N)cc(-c3ccnc(Nc4cc(C#N)ccc4CCCCN)n3)cc21 [Compound 184]
54 | > 10000 | 5.4 | 2.6 | 190 | Cc1cc(-c2cnn(C)c2)c(C#N)cc1Nc1nccc(-c2cc(C#N)c3c(c2)[C@@](C)(CO)CN3)n1 [Compound 188]
1180 | 537 | 2950 | 72.4 | 250 | Cc1ccc(C2CCN(C)CC2)cc1Nc1nccc(-c2cc(C#N)c3c(c2)[C@@](C)(CO)CN3)n1 [Compound 192]
22 | > 10000 | 1.7 | 1.6 | 188 | Cc1c(CO)cc(C#N)cc1Nc1nccc(-c2cc(C#N)c3c(c2)[C@@](C)(CO)CN3)n1 [Compound 193]
17 | 479 | 1.4 | 3.6 | 193 | Cc1c(CN2CC(C)OC(C)C2)cc(C#N)cc1Nc1nccc(-c2cc(C#N)c3c(c2)[C@@](C)(CO)CN3)n1 (stereo partly drawn) [Compound 194]
30 | ~3720 | 1.9 | 6.2 | 210 | Cc1c(CN2CC(F)C2)cc(C#N)cc1Nc1nccc(-c2cc(C#N)c3c(c2)[C@@](C)(CO)CN3)n1 [Compound 195]
14 | > 10000 | 1 | 7.8 | 240 | Cc1c(CN2CC(F)(F)C2)cc(C#N)cc1Nc1nccc(-c2cc(C#N)c3c(c2)[C@@](C)(CO)CN3)n1 [Compound 196]
33 | ~240 | 4.8 | 6 | 223 | Cc1c(CN2CC(C)OC(C)C2)cccc1Nc1nccc(-c2cc(C#N)c3c(c2)[C@@](C)(CO)CN3)n1 (stereo partly drawn) [Compound 197]
63 | ~550 | 5.6 | 4.6 | 222 | [2H]C([2H])(c1cccc(Nc2nccc(-c3cc(C#N)c4c(c3)[C@@](C)(CO)CN4)n2)c1C)N1CC(C)OC(C)C1 (stereo partly drawn) [Compound 198]
76 | > 10000 | 7.4 | 6.9 | 170 | Cc1c(Nc2nccc(-c3cc(C#N)c4c(c3)[C@@](C)(CO)CN4)n2)cccc1C(=O)N1CC(C)OC(C)C1 (stereo partly drawn) [Compound 199]
41 | > 10000 | ~0.66 | 1.7 | 260 | COC(=O)c1cc(C#N)cc(Nc2nccc(-c3cc(C#N)c4c(c3)[C@@](C)(CO)CN4)n2)c1C [Compound 200]
14 | ~5890 | 1.8 | 6.6 | 294 | Cc1c(Nc2nccc(-c3cc(C#N)c4c(c3)[C@@](C)(CO)CN4)n2)cc(C#N)cc1C(=O)N1CCN(C)CC1 [Compound 203]
14 | ~3980 | 1.5 | 6.2 | 297 | [2H]C([2H])([2H])N1CCN(C(=O)c2cc(C#N)cc(Nc3nccc(-c4cc(C#N)c5c(c4)[C@@](C)(CO)CN5)n3)c2C)CC1 [Compound 204]
162 | > 10000 | 11.2 | 6 | 201 | [2H]C1([2H])OC([2H])([2H])C([2H])([2H])N(C(=O)c2cccc(Nc3nccc(-c4cc(C#N)c5c(c4)[C@@](C)(CO)CN5)n3)c2C)C1([2H])[2H] [Compound 205]
66 | ~9550 | 13.2 | 5 | 268 | Cc1c(Nc2nccc(-c3cc(C#N)c4c(c3)[C@@](C)(CO)CN4)n2)cccc1C(=O)N1CCN(C2COC2)CC1 [Compound 207]
389 | > 10000 | 10.7 | 6.5 | 234 | C[C@]1(CO)CNc2c(C#N)cc(-c3ccnc(Nc4cc(CO)c(F)cc4OC4CC4)n3)cc21 [Compound 208]
132 | > 10000 | 14.8 | 14.5 | 254 | C[C@]1(CO)CNc2c(C#N)cc(-c3ccnc(Nc4cc(C#N)c(F)cc4OC4CC4)n3)cc21 [Compound 209]
1070 | > 10000 | 5 | 4.2 | 304 | Cc1ccc(C#N)cc1Nc1ncnc(-c2cc(C#N)c3c(c2)[C@@](C)(CO)CN3)n1 [Compound 213]
4270 | ~7940 | 107 | 9.8 | 151 | COCCNCc1ccc(C)c(Nc2nccc(-c3cc(C#N)c4c(c3)[C@@](C)(CO)CN4)n2)c1 [Compound 217]
4570 | > 10000 | 72.4 | 10.2 | 140 | Cc1ccc(CN2CC(F)C2)cc1Nc1nccc(-c2cc(C#N)c3c(c2)[C@@](C)(CO)CN3)n1 [Compound 220]
23 | ~851 | 3.1 | 1.6 | 129 | CN1CCC(Oc2ccc(C#N)cc2Nc2nccc(-c3cc(C#N)c4c(c3)[C@@](C)(CO)CN4)n2)CC1 [Compound 223]
3240 | > 10000 | 83.2 | 14.1 | 238 | C[C@]1(CO)CNc2c(C#N)cc(-c3ccnc(Nc4cc(C#N)ccc4CN4CCOCC4)n3)cc21 [Compound 224]
195 | > 10000 | 19.5 | 20 | 181 | C[C@]1(CO)CNc2c(C#N)cc(-c3ccnc(Nc4cc(C#N)ccc4CNC4CC4)n3)cc21 [Compound 225]
74 | > 10000 | 33.1 | 4.3 | 298 | CN1CCN(Cc2ccc(C#N)cc2Nc2nccc(-c3cc(C#N)c4c(c3)[C@@](C)(CO)CN4)n2)CC1 [Compound 226]
96 | ~3160 | 32.4 | 7.9 | 223 | C[C@]1(CO)CNc2c(C#N)cc(-c3ccnc(Nc4cc(C#N)ccc4CN4CC(F)(F)C4)n3)cc21 [Compound 227]
120 | > 10000 | 19.5 | 5.4 | 170 | CC1(CO)CNc2c(C#N)cc(-c3ccnc(Nc4cc(C#N)ccc4CN4CC(F)C4)n3)cc21 (stereo not drawn) [Compound 228]
251 | > 10000 | 22.4 | 7.6 | 207 | C[C@]1(CO)CNc2c(C#N)cc(-c3ccnc(Nc4cc(C#N)ccc4CCN4CC(F)C4)n3)cc21 [Compound 229]
457 | 2690 | 60.3 | 3.9 | 133 | Cc1ccc(OCCNC2CC2)c(Nc2nccc(-c3cc(C#N)c4c(c3)[C@@](C)(CO)CN4)n2)c1 [Compound 235]
32 | 178 | 42.7 | 2.6 | 249 | CN(C)Cc1cc(Nc2nccc(-c3cc(C#N)c4c(c3)[C@@](C)(CO)CN4)n2)ccc1C1CCOCC1 [Compound 236]
44 | 302 | 11.2 | 2.5 | 259 | CCS(=O)(=O)N(C)c1cccc(Nc2nccc(-c3cc(C#N)c4c(c3)C(C)(CO)CN4)n2)c1 (stereo not drawn) [Compound 240]
